Here are results for 5 compounds from publication PMC9653339, “Revisiting the anticancer properties of phosphane(9-ribosylpurine-6-thiolato)gold(I) complexes and their 9H-purine precursors” (Journal of Biological Inorganic Chemistry, 2022).

In assay [1] the test system is HCT-116^wt colon carcinoma cells. Nature of the assay: MTT cell viability assay, HCT-116wt. The assay is classed as cell-based, human. The conditions noted are these: 72 h. Here is the method: Cells were seeded in 96-well microtiter plates (Sarstedt) with a cell density of 0.05 × 10^6 cells per ml and 100 µL per well and incubated for 24 h. A dilution series of test compounds was added to the wells, ranging in twelve steps from 100 µM to 5 nM. As a control, equal amounts of DMSO were added. Treated cells were further incubated for 72 h. Then, 12.5 µL per well of MTT solution (0.05% in phosphate-buffered saline (PBS)) was added, followed by another 2 h of incubation. The plates were centrifuged, the medium was discarded and 25 µL per well of SDS solution in DMSO (10% SDS, 0.6% AcOH in DMSO) was added to dissolve the formazan. The plates were incubated for a further hour. Absorbances at 570 nm and 630 nm were measured using a plate reader (Tecan). Background absorbance (630 nm) was subtracted from the formazan signal (570 nm). The resulting absorbance was directly proportional to the amount of viable cells. The control was normalized to 100% viable cells and viability of cells treated with test compounds was calculated accordingly. IC50 values were calculated based on a sigmoidal fit model using GraphPad Prism. Means and SD were calculated from at least four independent experiments.
In general terms: Formazan colour is commonly taken as a measure of viable cells.

For assay [2], the system named is 518A2 melanoma cells. Nature of the assay: Influence on the cell cycle (PI flow cytometry). The assay is classed as cell-based, human. The conditions noted are these: 518A2 cells, 24 h, IC50 concentrations (5: approximately twice its IC50). The procedure:
The complexes were investigated for their effect on the cell cycle. Cells were seeded in 6-well plates (Sarstedt) with 3 mL per well and a cell density of 0.05 × 10^6 cells per mL and incubated for 24 h. […] The supernatant of each sample was transferred into a separate tube on ice, the cell monolayer was rinsed once with PBS and the cells were harvested using trypsin, and also transferred into the tube. The cells were pelleted (4 °C, 150 × g, 5 min), re-suspended in 1 mL ice cold EtOH (70%) and stored for at least 1 h at 4 °C. Prior to propidium iodide (PI) staining, the cells were centrifuged (150×g, 5 min), the supernatant was discarded and the cells were layered with 1 mL PBS for 5 min. The cells were centrifuged again and the pellet was re-suspended in 200 µL of PI staining solution (50 µg/mL PI, 1% sodium citrate in PBS) containing 1 µL RNase (10 mg/mL stock solution) and incubated in dark for 30 min at 37 °C. The cell cycle distribution was assessed by flow cytometry (Beckmann Coulter). Means and SD were calculated from at least three independent experiments.

The test system of assay [3] is thioredoxin reductase (TrxR). Description: Inhibition of TrxR activity in cell lysates. It counts as biochemical, human. The conditions noted are these: lysates of 518A2 melanoma cells. The procedure:
For the measurement of TrxR activity, the TrxR Colorimetric Assay Kit (Cayman Chemicals) was used according to manufacturer’s instructions. 1 × 10^8 518A2 melanoma cells were harvested using a cell scraper, homogenized in 5 mL of cold lysis buffer (50 mM K3PO4, 1 mM EDTA, pH 7.4) on ice and centrifuged for 15 min (4 °C, 10,000×g). The protein concentration of the supernatant was determined via Nanodrop. Then, 10 µL Protease Inhibitor Cocktail Plus (Carl Roth) was added to 1 mL of the cell lysate, which was either used for the assay right away or stored at − 80 °C. Prior to use, the assay buffer was warmed to room temperature and the cell lysate, NADPH (Nicotinamide adenine dinucleotide phosphate), ATM (aurothiomalate) and rat liver TrxR enzyme were thawed and kept on ice After determination of the amount of cell lysate for optimum TrxR activity, alle components were pipetted into the wells of a clear 96-well plate and the enzymatic reactions were initiated by addition of NADPH and 5,5′-dithiobis-(2-nitrobenzoic acid (DTNB). Then, the absorbance at 405 nm was measured once every minute using a plate reader (Tecan) at least ten time points. The TrxR activity was measured in the presence and absence of ATM. The difference between the two results renders the DTNB reduction due to TrxR activity. By plotting the average absorbance values as a function of time, the slope of the linear portion of the curve was obtained, and the change of absorbance (ΔA405) per minute could be determined. The values were corrected for unspecific DTNB reduction and the TrxR activity was calculated using the following formula: TrxR activity [µmol/min/mL] = [corrected ΔA/min (sample)/7.92 mM^−1] × [0.2 mL/0.02 mL] × sample dilution. The assay was conducted at 22 °C. All experiments were performed in triplicate and the solvent-treated negative controls were set to 100%.

A further assay has as its system EA.hy926 cells. Description: Tube formation assay. The assay is classed as cell-based, human. The conditions noted are these: 5 µM (CA-4 0.01 µM). Here is the method: EA.hy926 cells were cultured overnight in endothelial medium (37 °C, 95% humidity, 5% CO2) instead of DMEM. In addition, Matrigel was thawed on ice in the refrigerator. Pipette tips and 96-well plates were stored at − 20 °C overnight. The next day, 30 µL of Matrigel was added to each well bubble-free and the well plate was incubated for approximately 45 min (37 °C, 95% humidity, 5% CO2). Subsequently, 100 µL of cell suspension was added to each well at a concentration of 0.4–0.5 × 10^6 cells/mL onto the Matrigel-treated wells and the substances were added in tenfold pre-dilution. This was followed by incubation for approximately 6 h, until tubes formed in the negative control with DMSO. At this point, documentation under the microscope took place.

For assay [4], the system named is 518A2 melanoma cells. Nature of the assay: Inhibition of wound healing (scratch migration assay). It counts as cell-based, human. Particulars: 518A2 cells, IC50 concentrations, 0-24 h. The procedure:
Cells of melanoma cell line 518A2 were seeded in a volume of 500 µL and at a concentration of 0.1 × 10^6 cells/mL in 24-well plates in triplicate. The plate was incubated (37 °C, 95% humidity, 5% CO2) for two days until a confluent monolayer was formed. A 10 µL pipette tip was used to create a wound in the cell lawn, the wound was rinsed with PBS and the medium was changed to a FBS-reduced one. Pictures were taken at first time point (0 h) right before the addition of substance at 100-fold pre-dilution. The plate was then incubated again in the incubator and photos were taken at several more time points (6, 12, and 24 h) [262626].

One may read the IC50 as the point on the concentration scale where inhibition reaches its midpoint. A high value points to a need for much substance. With `Sc1ncnc2nc[nH]c12` [6-MP, 6-Mercaptopurine, reference compound], inhibition in assay [1] (Homo sapiens, Colon carcinoma cell) was half-maximal at 5.3 ± 0.28 µM (IC50). Besides, in the assay with 518A2 melanoma cells [2], the “Effect on the cell cycle” value is recorded as “accumulated in G1-phase”. Also, the “Inhibition of TrxR activity” value in assay [3] is listed as “inhibited TrxR”.

Take `Nc1nc2nc[nH]c2c(=S)[nH]1` [6-TG, 6-thioguanine, reference compound]: the “Effect on the cell cycle” value in the assay on 518A2 melanoma cells [2] was “accumulated in G1-phase”. The “Inhibition of TrxR activity” value in assay [3] is “inhibited TrxR”. Also, in the assay with EA.hy926 cells, the “Inhibition of tube formation” value is listed as “stronger such effect when compared to 6-MP”.

`CC(=O)OC[C@H]1O[C@@H]([S-])[C@H](OC(C)=O)[C@@H](OC(C)=O)[C@@H]1OC(C)=O.CCP(CC)CC.[Au+]` [Auranofin, auranofin]: the “Effect on the cell cycle” value in the assay with 518A2 melanoma cells [2] is recorded as “arrested mainly in S-phase”. Besides, in assay [3], the “Inhibition of TrxR activity” value is given as “inhibited TrxR”. Besides, the “Inhibition of tube formation” value in the assay with EA.hy926 cells was “inhibitory effects”.

Consider `OC[C@H]1O[C@@H](n2cnc3c([S][Au][PH](c4ccccc4)(c4ccccc4)c4ccccc4)ncnc32)[C@H](O)[C@@H]1O` [Complex 5, (1,7-Dihydro-6H-purine-9-β-D-ribofuranosyl-6-thiolato) (triphenylphosphane) gold(I)], for which, in assay [1], the IC50 turned out to be 1.7 ± 0.2 µM. Moreover, the “Effect on the cell cycle” value in the assay on 518A2 melanoma cells [2] is “both a G1-phase arrest and an S-phase arrest”. Also, the “Inhibition of TrxR activity” value in assay [3] is “inhibited TrxR even more strongly than 6-MP, 6-TG and auranofin”. Besides, the “Effect on cell migration (scratch closure)” value with 518A2 melanoma cells [4] is “retarded the closure of the scratch”. For the same compound, the “Inhibition of tube formation” value in the assay with EA.hy926 cells is “inhibitory effect, comparable in strength to that of 6-TG”.

Regarding `Nc1nc([S][Au][PH](c2ccccc2)(c2ccccc2)c2ccccc2)c2ncn([C@@H]3O[C@H](CO)[C@@H](O)[C@H]3O)c2n1` [Complex 6, (2-Amino-1,7-dihydro-6H-purine-9-β-D-ribofuranosyl-6-thiolato) (triphenylphosphane) gold(I)], the midpoint of inhibition in assay [1], the IC50, lay at 5.5 ± 0.2 µM. Moreover, in assay [3], the “Inhibition of TrxR activity” value was “inhibited TrxR even more strongly than 6-MP, 6-TG and auranofin”. Further, the “Effect on cell migration (scratch closure)” value in the assay on 518A2 melanoma cells [4] is listed as “even accelerated it”.
